From ChEMBL document CHEMBL1158661, “Celenamide E, a Tripeptide Alkaloid from the Patagonian Sponge Cliona chilensis” (J Nat Prod, 1998)
Calls of active or inactive are those of the source.

Legend:
Format in all cases: functional, organism-based
Staphylococcus aureus = experiment: Antibiotic activity against Staphylococcus aureus at 50 ug/disk
Micrococcus luteus = experiment: Antibiotic activity against Micrococcus luteus at 50 ug/disk
Enterococcus faecalis = experiment: Antibiotic activity against Enterococcus faecalis at 50 ug/disk
Bacillus subtilis = experiment: Antibiotic activity against Bacillus subtilis at 50 ug/disk

Measured: Activity

N/C(=C\c1cc(O)c(O)c(O)c1)C(=O)N[C@@H](Cc1c[nH]c2cc(Br)ccc12)C(=O)N/C=C/c1ccc(O)c(O)c1
active: Staphylococcus aureus | Micrococcus luteus | Enterococcus faecalis | Bacillus subtilis
